ChEMBL document CHEMBL5338747, “Discovery of Quaternized Pyridine-Thiazole-Pleuromutilin Derivatives with Broad-Spectrum Antibacterial and Potent Anti-MRSA Activity” (J Med Chem, 2023)
Activity calls are given as the source filed them. The calls are words filed in the database; no cut-off is given here.

Columns and labels:
Staphylococcus aureus [1] = experiment: Antibacterial activity against methicillin-resistant Staphylococcus aureus ATCC 33591 infected in Kunming mouse assessed as reduction in inflammatory cell infiltration in lungs at 3 to 10 mg/kg, ip for 2 days starting from 1 hr post-infection by hematoxylin-eosin staining based analysis; assay type: functional, organism-based; conditions: dose 3-10 mg/kg, time 2.0 day
Staphylococcus aureus [2] = experiment: Antibacterial activity against methicillin-resistant Staphylococcus aureus 575 assessed as inhibition of bacterial growth incubated for 24 hrs by broth microdilution method; assay type: functional
Mycoplasma genitalium = experiment: Anti-mycoplasma activity against Mycoplasma genitalium G37 ATCC33530 assessed as inhibition of mycoplasma growth measured after 7 days by broth microdilution method; assay type: functional; conditions: Mycoplasmoides genitalium, G37 ATCC33530, 168 h; time 7 day
Cell membrane [3] = experiment: Disruption of bacterial cell membrane in methicillin-resistant Staphylococcus aureus ATCC 33591 assessed as increase in number of surface folds and atrophy at MIC incubated for 4 hrs by FESEM analysis; assay type: subcellular
[4] = Drug metabolism in Sprague-Dawley rat plasma assessed as metabolite formation at 10 mg/kg, iv measured after 1 hr by UPLC/Q-TOF-MS analysis; assay type: ADME, organism-based; conditions: in vivo
Cell membrane [5] = experiment: Disruption of bacterial cell membrane in Escherichia coli ATCC 25922 assessed as increase in fluorescence intensity by DiBAC4(3) dye based fluorescence analysis; assay type: subcellular
[6] = Clearance in Sprague-Dawley rat at 1 mg/kg, iv by LC-MS analysis; assay type: ADME, organism-based; conditions: in vivo
Cell membrane [7] = experiment: Disruption of bacterial cell membrane in methicillin-resistant Staphylococcus aureus ATCC 33591 assessed as severe depression on the cell surface,cell rupture and leakage of intracellular components at 4XMIC incubated for 4 hrs by FESEM analysis; assay type: subcellular
Staphylococcus aureus [8] = experiment: Antibacterial activity against methicillin-resistant Staphylococcus aureus ATCC 33591 infected in Kunming mouse assessed as animal survival rate at 5 mg/kg, ip for 7 days starting from 1 hr post-infection; assay type: functional; conditions: ATCC 33591, 168 h, time 7 day
[9] = tested on: Staphylococcus epidermidis; experiment: Antibacterial activity against methicillin-resistant Staphylococcus epidermidis ATCC 51625 assessed as inhibition of bacterial growth incubated for 24 hrs by broth microdilution method; assay type: functional
[10] = Half-life in Sprague-Dawley rat at 1 mg/kg, iv by LC-MS analysis; assay type: ADME, organism-based; conditions: in vivo
Cell membrane [11] = experiment: Disruption of bacterial cell membrane in Escherichia coli ATCC 25922 assessed as increase in red fluorescence intensity at MIC incubated for 2 hrs by MycoLightGreen1198/PI staining based confocal laser scanning microscopy
[12] = tested on: Mycoplasmoides gallisepticum; experiment: Potency index, ratio of tiamulin MIC to test compound MIC against anti-mycoplasma activity against Mycoplasma gallisepticum R NCTC10115; assay type: functional
Acinetobacter baumannii = experiment: Antibacterial activity against carbapenem-resistant Acinetobacter baumannii 882 assessed as inhibition of bacterial growth incubated for 24 hrs by broth microdilution method; assay type: functional
Cell membrane [13] = experiment: Disruption of bacterial cell membrane in Escherichia coli ATCC 25922 assessed as increase in red fluorescence intensity at 4XMIC incubated for 2 hrs by MycoLightGreen1198/PI staining based confocal laser scanning microscopy
Staphylococcus aureus [14] = experiment: Disruption of biofilm formation in methicillin-resistant Staphylococcus aureus ATCC 33591 assessed as inhibition of biofilm formation at 4XMIC measured after 24 hrs by crystal violet staining based analysis; assay type: functional
Staphylococcus aureus [15] = experiment: Antibacterial activity against methicillin-resistant Staphylococcus aureus ATCC 33591 infected in Kunming mouse assessed as animal survival rate at 10 mg/kg, ip for 7 days starting from 1 hr post-infection; assay type: functional; conditions: ATCC 33591, 168 h, time 7 day
Escherichia coli [16] = experiment: Bactericidal activity against Escherichia coli ATCC 25922 assessed as reduction in bacterial colonies formation at MIC incubated for 24 hrs in MHB followed by culturing on agar plate for 24 hrs by time-kill kinetics based analysis; assay type: functional; conditions: time 48 hrs
Staphylococcus aureus [17] = experiment: Antibacterial activity against methicillin-resistant Staphylococcus aureus 171 assessed as inhibition of bacterial growth incubated for 24 hrs by broth microdilution method; assay type: functional
Escherichia coli [18] = experiment: Antibacterial activity against Escherichia coli ATCC 25922 assessed as inhibition of bacterial growth incubated for 24 hrs by broth microdilution method; assay type: functional
Escherichia coli [19] = experiment: Bactericidal activity against Escherichia coli ATCC 25922 assessed as reduction in bacterial colonies formation at 4XMIC incubated for 4 hrs in MHB followed by culturing on agar plate for 24 hrs by time-kill kinetics based analysis; assay type: functional; parameters: scale not given: the % may be the effect or the level left; conditions: time 28 hrs
Cell membrane [20] = experiment: Disruption of bacterial cell membrane in Escherichia coli ATCC 25922 assessed as increase in number of surface folds and atrophy at MIC incubated for 4 hrs by FESEM analysis
Klebsiella pneumoniae = experiment: Antibacterial activity against multidrug-resistant Klebsiella pneumoniae 893 assessed as inhibition of bacterial growth incubated for 24 hrs by broth microdilution method; assay type: functional
[21] = tested on: Mesomycoplasma hyopneumoniae; experiment: Anti-mycoplasma activity against Mycoplasma hyopneumoniae J NCTC10110 assessed as inhibition of mycoplasma growth measured after 7 days by broth microdilution method; assay type: functional; conditions: J NCTC10110, 168 h, time 7 day
Staphylococcus aureus [22] = experiment: Antibacterial activity against methicillin-resistant Staphylococcus aureus ATCC 33591 infected in Kunming mouse assessed as reduction in number of inflammatory cells in liver at 10 mg/kg, ip for 2 days starting from 1 hr post-infection by hematoxylin-eosin staining based analysis; assay type: functional, organism-based; conditions: time 2.0 day
Pseudomonas aeruginosa = experiment: Antibacterial activity against multidrug-resistant Pseudomonas aeruginosa 126 assessed as inhibition of bacterial growth incubated for 24 hrs by broth microdilution method; assay type: functional
[23] = MRT in Sprague-Dawley rat at 1 mg/kg, iv by LC-MS analysis; assay type: ADME, organism-based; conditions: in vivo
[24] = Volume of distribution at steady state in Sprague-Dawley rat at 1 mg/kg, iv by LC-MS analysis; assay type: ADME, organism-based; conditions: in vivo, read-out: Vdss
Staphylococcus aureus [25] = experiment: Bactericidal activity against methicillin-resistant Staphylococcus aureus ATCC 33591 assessed as reduction in bacterial colonies formation at MIC incubated for 24 hrs in MHB followed by culturing on agar plate for 24 hrs by time-kill kinetics based analysis; assay type: functional; conditions: time 48 hrs
Staphylococcus aureus [26] = experiment: Antibacterial activity against methicillin-resistant Staphylococcus aureus ATCC 33591 infected in Kunming mouse assessed as reduction in bacterial load in liver at 5 to 10 mg/kg, ip for 2 days starting from 1 hr post-infection by hematoxylin-eosin staining based analysis; assay type: functional, organism-based; conditions: dose 5-10 mg/kg, time 2.0 day
Cell membrane [27] = experiment: Disruption of bacterial cell membrane in methicillin-resistant Staphylococcus aureus ATCC 33591 incubated for 4 hrs by FESEM analysis; assay type: subcellular
[28] = tested on: Mesomycoplasma hyopneumoniae; experiment: Anti-mycoplasma activity against Mycoplasma hyopneumoniae LH assessed as inhibition of mycoplasma growth measured after 7 days by broth microdilution method; assay type: functional; conditions: 168 h, time 7 day
[29] = tested on: Mycoplasmoides pneumoniae; experiment: Anti-mycoplasma activity against Mycoplasma pneumoniae M129 ATCC15531 assessed as inhibition of mycoplasma growth measured after 7 days by broth microdilution method; assay type: functional; conditions: M129 ATCC15531, 168 h, time 7 day
Cell membrane [30] = experiment: Disruption of bacterial cell membrane in Escherichia coli ATCC 25922 assessed as severe depression on the cell surface,cell rupture and leakage of intracellular components at 4XMIC incubated for 4 hrs by FESEM analysis; assay type: subcellular
Staphylococcus aureus [31] = experiment: Antibacterial activity against methicillin-resistant Staphylococcus aureus 206 assessed as inhibition of bacterial growth incubated for 24 hrs by broth microdilution method; assay type: functional

## C=C[C@]1(C)C[C@@H](OC(=O)CSc2nc(-c3cc[n+](Cc4ccc(C)cc4)cc3)cs2)[C@]2(C)[C@H](C)CC[C@]3(CCC(=O)[C@H]32)[C@@H](C)[C@@H]1O.[Br-]
Staphylococcus aureus [1]
  Activity: Active
Staphylococcus aureus [2]
  MIC: 8 µg/mL
Mycoplasma genitalium
  MIC: 0.015 µg/mL
Cell membrane [3]
  Activity: Active
[4]
  Drug metabolism: Metabolite_Detected
Cell membrane [5]
  Activity: Dose-Dependent Effect
[6]
  clearance: 31.7 mL/min/kg
Cell membrane [7]
  Activity: Active
Staphylococcus aureus [8]
  survival at 5 mg/kg: 57.1%
[9]
  MIC: 1 µg/mL
[10]
  half-life: 43.8 min
Cell membrane [11]
  Activity: Active
[12]
  Ratio: 10
Acinetobacter baumannii
  MIC: 8 µg/mL
Cell membrane [13]
  Activity: 100%
Staphylococcus aureus [14]
  inhibition (INH): 86.43%
Staphylococcus aureus [15]
  survival at 10 mg/kg: 71.4%
Escherichia coli [16]
  Activity: 6.98 log10CFU/ml
Staphylococcus aureus [17]
  MIC: 4 µg/mL
Escherichia coli [18]
  MIC: 0.062 µg/mL
Escherichia coli [19]
  Activity: 100%
Cell membrane [20]
  Activity: Active
Klebsiella pneumoniae
  MIC: 16 µg/mL
[21]
  MIC: 0.004 µg/mL
Staphylococcus aureus [22]
  Activity: Active
Pseudomonas aeruginosa
  MIC: 64 µg/mL
[23]
  MRT: 34.8 min
[24]
  Vd: 2.1 L/kg
Staphylococcus aureus [25]
  Activity: 4.5 log10CFU/ml
Staphylococcus aureus [26]
  Activity: Active
Cell membrane [27]
  Activity: Dose-Dependent Effect
[28]
  MIC: 0.002 µg/mL
[29]
  MIC: 0.03 µg/mL
Cell membrane [30]
  Activity: Active
Staphylococcus aureus [31]
  MIC: 2 µg/mL
